Laboratory results as given in US8445536B2, “Arginine-containing compositions and methods for increasing blood flow using same” (Ajinomoto Co., Inc., priority 2005, dated 2013).
Where two headings read alike, the source gives them in different places.

How the values were obtained:
male SD rats [1] = experiment: Test Example 4: blood pressure when administering arginine and glutamine to rats; settings: 50 mg arginine/kg over 30 min; 20 to 30 min after injection; average of 3 rats
male SD rats [2] = experiment: Test Example 1: blood pressure when administering arginine to rats (arterial catheter); settings: 500 mg of arginine per 1 kg body weight, iv over 30 min
human beings = human beings of average weight 78 kg, cited from earlier work
male SD rats [3] = experiment: Test Example 1: blood flow at the skin of the lower thighs, laser Doppler blood-flowmeter; settings: for Maximum increasing rate of blood flow (Before administration: 100%): skin of lower thighs
male SD rats [4] = experiment: Test Example 2: blood flow in the capillaries of various organs, microsphere method
Description: (b) Operation: Catheters were inserted into the carotid artery, jugular vein, and femoral artery of rats under anesthesia.
After taking enough time from the second administration of the microsphere, the rats were euthanasized, and the muscles, digestive tracts, liver, kidneys, spleen, heart, brain, adipose tissues, and abdominal skin were extracted. Then, the microspheres contained in each organ were collected and the rate of change in blood flow was calculated for each organ from the amount of the microspheres.

male SD rats [5] = experiment: Test Example 5: amounts of Evans' Blue delivered to various organs after arginine
Description: (b) Operation: A catheter was inserted into the jugular vein of rats under anesthesia. Then, a blood sample was collected from the catheter.
After sufficient time, the rats were euthanasized, and the muscles, digestive tracts, liver, kidneys, spleen, heart, brain, adipose tissues, and abdominal skin were extracted. Then, Evans' Blue was released by immersing each organ in a formalin solution, and the amount of Evans' Blue in each organ was calculated from the absorbance obtained by the spectrophotometer.

[6] = Test Example 3: concentration of free arginine in the blood plasma on intravenous arginine; format: in vivo, rats; settings: for concentration at 10 min / concentration at 20 min / concentration at 30 min / concentration at 40 min: Sprague-Dawley, rat, plasma, iv
Description: (c) Rats were anesthetized by pentobarbital. […] (b) Administration: […]

male SD rats [7] = experiment: Test Example 2: variation of blood pressure; settings: 50 or 150 mg of arginine per 1 kg body weight, iv over 30 min
[8] = 50 mg of arginine per 1 kg body weight
[9] = 150 mg of arginine per 1 kg body weight

SMILES: N=C(N)NCCC[C@H](N)C(=O)O [arginine]
- Maximum variation of blood pressure (male SD rats [1]): +11.4 mmHg
- death due to rapid reduction of blood pressure (male SD rats [2]): Two out of three rats died
- vascular resistance (human beings; 6 g arginine parenterally): did not cause either effect
- vascular resistance (human beings; 30 g arginine parenterally): lowered
- Maximum increasing rate of blood flow (Before administration: 100%) (male SD rats [3]; 50 mg arginine/kg iv over 30 min, 20 to 30 min after injection): +43.9%
- Maximum increasing rate of blood flow (Before administration: 100%) (male SD rats [3]; 150 mg arginine/kg iv over 30 min, 20 to 30 min after injection): +29.3%
- Maximum increasing rate of blood flow (Before administration: 100%) (male SD rats [3]; 500 mg arginine/kg iv over 30 min, 50 to 60 min after injection): +85.0%
- amount of blood flowing to the skin of the lower thighs (male SD rats [3]; all rats given 50 mg or more of arginine per 1 kg body weight): increased
- blood flow in the capillaries of the muscles and the brain (male SD rats [4]; [8]): significantly increased
- blood flow in the capillaries, all organs measured (male SD rats [4]; [9]): increased for all organs measured
- Changes in blood flow after the administration of arginine (before administration 100%) (male SD rats [4]; Abdominal skin, 50 mg/kg of body weight): 117%
- Changes in blood flow after the administration of arginine (before administration 100%) (male SD rats [4]; Abdominal skin, 150 mg/kg of body weight): 134%
- Changes in blood flow after the administration of arginine (before administration 100%) (male SD rats [4]; Adipose tissues, 50 mg/kg of body weight): 99%
- Changes in blood flow after the administration of arginine (before administration 100%) (male SD rats [4]; Adipose tissues, 150 mg/kg of body weight): 116%
- Changes in blood flow after the administration of arginine (before administration 100%) (male SD rats [4]; Back skin, 50 mg/kg of body weight): 107%
- Changes in blood flow after the administration of arginine (before administration 100%) (male SD rats [4]; Back skin, 150 mg/kg of body weight): 118%
- Changes in blood flow after the administration of arginine (before administration 100%) (male SD rats [4]; Brain, 50 mg/kg of body weight): 126%
- Changes in blood flow after the administration of arginine (before administration 100%) (male SD rats [4]; Brain, 150 mg/kg of body weight): 137%
- Changes in blood flow after the administration of arginine (before administration 100%) (male SD rats [4]; Duodenum, 50 mg/kg of body weight): 123%
- Changes in blood flow after the administration of arginine (before administration 100%) (male SD rats [4]; Duodenum, 150 mg/kg of body weight): 142%
- Changes in blood flow after the administration of arginine (before administration 100%) (male SD rats [4]; Heart, 50 mg/kg of body weight): 126%
- Changes in blood flow after the administration of arginine (before administration 100%) (male SD rats [4]; Heart, 150 mg/kg of body weight): 140%
- Changes in blood flow after the administration of arginine (before administration 100%) (male SD rats [4]; Kidneys, 50 mg/kg of body weight): 86%
- Changes in blood flow after the administration of arginine (before administration 100%) (male SD rats [4]; Kidneys, 150 mg/kg of body weight): 91%
- Changes in blood flow after the administration of arginine (before administration 100%) (male SD rats [4]; Liver, 50 mg/kg of body weight): 92%
- Changes in blood flow after the administration of arginine (before administration 100%) (male SD rats [4]; Liver, 150 mg/kg of body weight): 101%
- Changes in blood flow after the administration of arginine (before administration 100%) (male SD rats [4]; Muscles, 50 mg/kg of body weight): 164%
- Changes in blood flow after the administration of arginine (before administration 100%) (male SD rats [4]; Muscles, 150 mg/kg of body weight): 157%
- Changes in blood flow after the administration of arginine (before administration 100%) (male SD rats [4]; Spleen, 50 mg/kg of body weight): 104%
- Changes in blood flow after the administration of arginine (before administration 100%) (male SD rats [4]; Spleen, 150 mg/kg of body weight): 115%
- delivered amounts of Evans' Blue to the organs (tendency) (male SD rats [5]; 50 or 150 mg of arginine per 1 kg, muscles, digestive tract, liver, kidneys, spleen, brain, adipose tissues, skin): increased
- Changes in the amounts of Evans' Blue after administering arginine (before administration 100%) (male SD rats [5]; Abdominal skin, 150 mg/kg of BW): 207%
- Changes in the amounts of Evans' Blue after administering arginine (before administration 100%) (male SD rats [5]; Adipose tissues, 50 mg/kg of BW): 430%
- Changes in the amounts of Evans' Blue after administering arginine (before administration 100%) (male SD rats [5]; Adipose tissues, 150 mg/kg of BW): 160%
- Changes in the amounts of Evans' Blue after administering arginine (before administration 100%) (male SD rats [5]; Back skin, 50 mg/kg of BW): 315%
- Changes in the amounts of Evans' Blue after administering arginine (before administration 100%) (male SD rats [5]; Back skin, 150 mg/kg of BW): 331%
- Changes in the amounts of Evans' Blue after administering arginine (before administration 100%) (male SD rats [5]; Brain, 50 mg/kg of BW): 169%
- Changes in the amounts of Evans' Blue after administering arginine (before administration 100%) (male SD rats [5]; Duodenum, 50 mg/kg of BW): 143%
- Changes in the amounts of Evans' Blue after administering arginine (before administration 100%) (male SD rats [5]; Duodenum, 150 mg/kg of BW): 85%
- Changes in the amounts of Evans' Blue after administering arginine (before administration 100%) (male SD rats [5]; Gastrocnemius muscle, 50 mg/kg of BW): 219%
- Changes in the amounts of Evans' Blue after administering arginine (before administration 100%) (male SD rats [5]; Gastrocnemius muscle, 150 mg/kg of BW): 154%
- Changes in the amounts of Evans' Blue after administering arginine (before administration 100%) (male SD rats [5]; Heart, 50 mg/kg of BW): 87%
- Changes in the amounts of Evans' Blue after administering arginine (before administration 100%) (male SD rats [5]; Heart, 150 mg/kg of BW): 85%
- Changes in the amounts of Evans' Blue after administering arginine (before administration 100%) (male SD rats [5]; Kidneys, 50 mg/kg of BW): 161%
- Changes in the amounts of Evans' Blue after administering arginine (before administration 100%) (male SD rats [5]; Liver, 50 mg/kg of BW): 181%
- Changes in the amounts of Evans' Blue after administering arginine (before administration 100%) (male SD rats [5]; Liver, 150 mg/kg of BW): 173%
- Changes in the amounts of Evans' Blue after administering arginine (before administration 100%) (male SD rats [5]; Spleen, 50 mg/kg of BW): 101%
- Changes in the amounts of Evans' Blue after administering arginine (before administration 100%) (male SD rats [5]; Spleen, 150 mg/kg of BW): 92%
- rise of the concentration of free arginine in the blood plasma at maximum [6, 8]: 46.1 micrograms per 1 mL
- rise of the concentration of free arginine in the blood plasma at maximum [6, 9]: 177.5 micrograms per 1 mL
- concentration at 10 min ([6]; 50 mg/kg): 43.6 µg/mL
- concentration at 20 min ([6]; 50 mg/kg): 46.1 µg/mL
- concentration at 30 min ([6]; 50 mg/kg): 38.8 µg/mL
- concentration at 40 min ([6]; 50 mg/kg): 15.7 µg/mL
- concentration at 10 min ([6]; 150 mg/kg): 156 µg/mL
- concentration at 20 min ([6]; 150 mg/kg): 115 µg/mL
- concentration at 30 min ([6]; 150 mg/kg): 178 µg/mL
- concentration at 40 min ([6]; 150 mg/kg): 77.2 µg/mL
- variation of blood pressure (male SD rats [7]): ≤ 10 mmHg
